Experimental data as given in patent US20260157376A1, “METHOD OF CONTROLLING, LIMITING OR PREVENTING OOMYCETES” (priority 2022, published 2026).

Tested on: Pythium ultimum
Assay: In vitro growth inhibition of Pythium ultimum in PDB nutrient broth, 96-well microtiter plate
Assay type: cell-based
Conditions: 24° C., 48 hours

Inpyrfluxam [reference compound]
Observed efficacy (%) (20 ppm): 0%

Monopotassium phosphite
Observed efficacy (%) (125 ppm): 20% | Observed efficacy (%) (250 ppm): 20% | Observed efficacy (%) (500 ppm): 20%

N.N.O=[PH](O)O [Diammonium phosphonate]
Observed efficacy (%) (500 ppm): 50% | Observed efficacy (%) (1000 ppm): 70%

COCC(=O)N(c1c(C)cccc1C)[C@H](C)C(=O)OC [Mefenoxam, reference compound]
Observed efficacy (%) (0.007 ppm): 0% | Observed efficacy (%) (0.02 ppm): 20% | Observed efficacy (%) (0.06 ppm): 50%
